Reference: patent US7563798B2, “Substituted pyrazolo[1,5-a]pyrimidines as protein kinase inhibitors” (Schering Corporation, priority 2002, dated 2009)

What follows are compounds tested against T1, Cyclin E/CDK2 (Homo sapiens, UniProt P24941) (assay: Cyclin E/CDK2 in vitro kinase assay (33P-ATP, SPA beads)).
T1 construct: made in house; host or cells: SF9 insect cells (baculovirus co-infection)
Format: biochemical
`Cc1cc(Nc2cc(C3CCCNC3)nc3c(-c4cnn(C)c4)cnn23)sn1` (centres unmarked) gave an IC50 of 46 µM. `Cc1cc(Nc2cc(C3CCCNC3)nc3c(-c4cncs4)cnn23)sn1` (centres unmarked) was tested, and the IC50 was 3.3 µM. Compound `Cc1cc(Nc2cc(C3CNCCS3)nc3c(-c4cnn(C)c4)cnn23)sn1` (centres unmarked) has an IC50 of 40 µM. Compound `Cc1cc(Nc2cc(C3CCCNC3)nc3c(Br)cnn23)sn1` (centres unmarked) has an IC50 of 0.076 µM. For `Cc1cc(Nc2cc(C3CCCNC3)nc3c(-c4coc(C#N)c4)cnn23)sn1` (centres unmarked), the IC50 was 3.6 µM. Compound `Cc1cc(Nc2cc(C3CCCNC3)nc3c(-c4coc(C=NO)c4)cnn23)sn1` (centres unmarked) has an IC50 of 0.05 µM. For `Cc1cc(Nc2cc(N3CC[C@@H](N)C3)nc3c(-c4cnn(C)c4)cnn23)sn1`, the IC50 was 49 µM. With `Cc1cc(Nc2cc(N3CC(N)C3)nc3c(-c4cnn(C)c4)cnn23)sn1` the IC50 was 6.7 µM.
